pKi: −log10 of the molar value.

This is an account of results in patent US5869479A, “Treatment of upper airway allergic responses” (Schering Corporation, priority 1997, dated 1999).

One data set concerns nasal airway resistance. In words: Nasal airway resistance (NAR) in anesthetized cats after aerosolized Compound 48/80 challenge. Type of data set: in vivo. From the text:
(§1) Adult cats are anesthetized with intraperitoneal injections of sodium pentobarbital. The right femoral artery and vein are cannulated for measurement of blood pressure with a pressure transducer, and for the administration of drugs. The animals are paralyzed with intravenous gallamine triethiodide and subsequently mechanically ventilated with room air, using an animal ventilator. After isolation of the cervical […], a cuffed endotracheal tube is advanced rostrally into the posterior nasopharynx and inflated to form an air-tight seal, allowing continuous measurement of pressure changes within the nasal cavity. The right nasal airway is occluded with dental impression compound, and humidified air is passed through the left nasal airway at about 1.7 liters per minute. By means of pressure transducers, nasal airway pressure and insufflation pressure can be derived and electronically recorded.
The known histamine releaser "Compound 48/80" (the condensation product of N-methyl-p-methoxyphenethylamine with formaldehyde, sold by Sigma Chemical Company, St. Louis, Mo., USA), as a 1.0 percent solution in 0.9 percent aqueous saline solution, is aerosolized into the air stream for 2 minutes to induce an increased NAR. This effect is used to study the decongestant effects of various test substances, administered to the animals intravenously 10 minutes prior to the introduction of Compound 48/80. These substances include 0.9 percent aqueous saline (normal saline "Vehicle"), phenylpropanolamine hydrochloride at 1.0 mg/Kg of the free drug, thioperamide maleate at 10 mg/Kg of the free drug and chlorpheniramine maleate at 0.8 mg/Kg of the free drug, all of the drug compounds being in solution in 0.9 percent aqueous saline. […]

The nature of data set [1]: Blood pressure change from baseline in the cat experiments. Type of data set: in vivo, cats. As to conditions: Example 4, phenylpropanolamine 1 mg/Kg.
From the text: as §1
The known histamine releaser "Compound 48/80" (the condensation product of N-methyl-p-methoxyphenethylamine with formaldehyde, sold by Sigma Chemical Company, St. Louis, Mo., USA), as a 1.0 percent solution in 0.9 percent aqueous saline solution, is aerosolized into the air stream for 2 minutes to induce an increased NAR. This effect is used to study the decongestant effects of various test substances, administered to the animals intravenously 10 minutes prior to the introduction of Compound 48/80. These substances include 0.9 percent aqueous saline (normal saline "Vehicle"), phenylpropanolamine hydrochloride at 1.0 mg/Kg of the free drug, thioperamide maleate at 10 mg/Kg of the free drug and chlorpheniramine maleate at 0.8 mg/Kg of the free drug, all of the drug compounds being in solution in 0.9 percent aqueous saline.
Blood pressure data from the experiments of the preceding examples are examined, to determine the effects of certain congestion-preventing treatments.

For another data set, the target named is T1, histamine H3 receptor (Cavia porcellus, UniProt Q9JI35).
T1 construct: from tissue; host or cells: guinea pig brain membranes
T1 sequence (Q9JI35 whole entry): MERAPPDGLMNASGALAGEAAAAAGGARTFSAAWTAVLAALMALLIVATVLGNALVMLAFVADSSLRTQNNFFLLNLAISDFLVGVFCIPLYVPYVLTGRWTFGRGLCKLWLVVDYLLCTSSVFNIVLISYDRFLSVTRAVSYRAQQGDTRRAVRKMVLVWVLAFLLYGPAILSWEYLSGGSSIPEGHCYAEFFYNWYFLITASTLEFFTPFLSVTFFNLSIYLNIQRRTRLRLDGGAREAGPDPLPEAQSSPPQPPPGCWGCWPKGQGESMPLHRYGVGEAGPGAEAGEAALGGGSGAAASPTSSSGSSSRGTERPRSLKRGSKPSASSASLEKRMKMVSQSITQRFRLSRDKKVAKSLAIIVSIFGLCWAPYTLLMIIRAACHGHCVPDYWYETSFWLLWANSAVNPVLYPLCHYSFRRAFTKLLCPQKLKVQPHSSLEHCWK
In words: Guinea pig brain membrane assay, affinity for histamine H3 receptor binding sites (Korte et al.). Conditions: Example 5. From the text:
A particularly useful screening assay measures binding to sites in guinea pig brain membranes. This test is described in detail by Korte et al., "Characterization and Tissue Distribution of H3 Histamine Receptors in Guinea Pigs by N^α -Methylhistamine," in Biochemical and Biophysical Research Communications, Vol. 168, pages 979-986 (1990), and quantifies the displacement of bound radiolabeled N^α -methylhistamine from tissues by candidate compounds. Results are expressed as "Ki " values, in nanoMolar (nM) units, which values can be considered as being dissociation constants for the H3 antagonist on the H3 receptor system, or an index of antagonist affinity for the receptor. The present inventors have evidence that decongestant activity in their invention for a given H3 antagonist concentration can be predicted to increase as the Ki value obtained from the assay for an antagonist decreases. In general, Ki values less than about 200 nM are considered necessary for an agent to be useful as an H3 antagonist in the invention.
The affinity of various histamine H3 receptor antagonists for binding sites is determined by a guinea pig brain membrane assay, according to the procedure of Korte et al., Biochemical and Biophysical Research Communications, Vol. 168, pages 979-986 (1990).

Setting [2] is: Example 1, i.v. 10 min before Compound 48/80, phenylpropanolamine 1.0 mg/Kg, thioperamide 10 mg/Kg, chlorpheniramine 0.8 mg/Kg (free drug), vehicle 9.1, baseline 2.6.

For the molecule `CN(C)CCC(c1ccc(Cl)cc1)c1ccccn1` (centres unmarked) [Chlorpheniramine, chlorpheniramine], the “NAR (nasal airway resistance)” value with nasal airway resistance (setting [2]) is listed as 6.0 centimeters of water/liters pe.

With `NC(=NCc1ccc(Cl)cc1)SCCCc1cnc[nH]1` [Clobenpropit, clobenpropit], the “Prevention of nasal congestion (in words)” value with nasal airway resistance (Example 3, clobenpropit alone or with chlorpheniramine 0.8 mg/Kg) is listed as “does not exhibit significant prevention of nasal congestion”. In addition, the “NAR (nasal airway resistance)” value in the data set with nasal airway resistance (Example 3, i.v., clobenpropit 1.0 mg/Kg alone, vehicle 9.1) was 5.5 centimeters of water/liters pe.

Regarding `CCOC(=O)N1CCC(=C2c3ccc(Cl)cc3CCc3cccnc32)CC1` [Loratadine, loratadine], the “NAR (nasal airway resistance)” value with nasal airway resistance (Example 6, loratadine 3 mg/Kg, thioperamide 10 mg/Kg, vehicle 30% dimethylsulfoxide, 40% ethanol, 30% normal saline (vehicle 12.6)) is reported as 10.2 centimeters of water/liters pe.

Turning to `CC(N)C(O)c1ccccc1` (centres unmarked) [Phenylpropanolamine, phenylpropanolamine], the “Blood pressure, change from baseline” value in data set [1] (i.v., thioperamide 10 mg/Kg + CPA 0.8 mg/kg, vehicle -16) is listed as “+31 mm Hg”. For the same molecule, the “Statistical difference of blood pressure change from vehicle” value in data set [1] is listed as “statistically different from those for the vehicle”. The “Effect on blood pressure (in words)” value in data set [1] (thioperamide 10 mg/Kg + CPA 0.8 mg/kg) is “significantly increases blood pressure”. Also, in the data set on nasal airway resistance (setting [2]), the “NAR (nasal airway resistance)” value was 2.9 centimeters of water/liters pe. In addition, the “Statistical difference of NAR from vehicle” value with nasal airway resistance (Example 1, phenylpropanolamine 1.0 mg/Kg i.v.) is “statistically different result from that for the vehicle”. Besides, in the data set on nasal airway resistance (Example 4 comment, phenylpropanolamine 1 mg/Kg), the “Nasal congestion-preventing effect compared with thioperamide + chlorpheniramine combination” value was “approximately equivalent nasal congestion-preventing effect”.

With `S=C(NC1CCCCC1)N1CCC(c2cnc[nH]2)CC1` [Thioperamide, thioperamide], the “NAR (nasal airway resistance)” value in the data set on nasal airway resistance (setting [2]) is reported as 6.7 centimeters of water/liters pe.

Turning to `COc1ccc(C/C(=N\O)C(=O)NCCc2c[nH]cn2)cc1Br` [Verongamine, verongamine], the pKi (as a rule, the negative decadic logarithm of the Ki, by convention in mol/L) at histamine H3 receptor is less than 6.70. Moreover, the “Statistical difference of NAR from vehicle” value in the data set on nasal airway resistance (Example 5, verongamine 10 mg/Kg) was “not statistically different from that for the vehicle”. Further, the “NAR (nasal airway resistance)” value in the data set on nasal airway resistance (Example 5, verongamine 10 mg/Kg, different vehicle (vehicle 7.8)) is 7.3 centimeters of water/liters pe.
